Data from PMC7782793, “Hydroxamic acid-modified peptide microarrays for profiling isozyme-selective interactions and inhibition of histone deacetylases” (Nature Communications, 2021).
Values joined by “and” are separate entries in the source; they are usually repeats but may differ in a detail not shown here. Equal entries are not always repeated. Marks after values point to notes of the source that are not given here. Non-standard residues stand in square brackets, D forms with d. Residues, ends and D or L forms follow the SMILES beside them. *: point of attachment. Asu = N[C@@H](CCCCCC(=O)O)C(=O)O; NHOH = ON*

Tests used:
HDACs 1‒3 and 8 = assay: HDAC inhibition assays, statements across several class I isozymes; type: biochemical, human; settings: for selectivity against HDACs 1‒3 versus HDAC8: resynthesized peptides, from Ki
HDAC2 = biological target: T1, HDAC2 (Homo sapiens, UniProt Q92769); assay: Recombinant HDAC µSPOT microarray binding assay;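 further: Cellulose-bound peptide spots on slides incubated with six HDAC enzyme concentrations, binding intensity read, four-parameter variable-slope fit, EC50 is enzyme concentration giving half-maximal binding, in HEPES buffer pH 7.4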
T1 construct: HDAC2 (full length, C-terminal His tag, BPS Bioscience, cat. #: 50002); purchased BPS Bioscience 50002
Method: Experiments were performed twice, data were obtained with Array Analyze software (Active Motif), and data analysis and representation were performed with the GraphPad Prism 7 software. Outliers were curated manually and data were fitted to nonlinear regression [log(agonist) vs. response—variable slope (four parameters)]. […] Non-sigmoidal curves were denoted as not determined (N.D.) The pEC50 values were determined as the concentration of HDAC enzyme required for half-maximal binding signal.

HDAC6 = biological target: T2, HDAC6 (Homo sapiens, UniProt Q9UBN7); assay: HDAC inhibition assay (fluorogenic, Ac-Leu-Gly-Lys(Ac)-AMC); type: biochemical; settings: HDAC6, replicates
T2 construct: HDAC6 (full length, BPS Bioscience, cat. #: 50056); purchased BPS Bioscience 50056
T2 sequence (Q9UBN7 1-1215): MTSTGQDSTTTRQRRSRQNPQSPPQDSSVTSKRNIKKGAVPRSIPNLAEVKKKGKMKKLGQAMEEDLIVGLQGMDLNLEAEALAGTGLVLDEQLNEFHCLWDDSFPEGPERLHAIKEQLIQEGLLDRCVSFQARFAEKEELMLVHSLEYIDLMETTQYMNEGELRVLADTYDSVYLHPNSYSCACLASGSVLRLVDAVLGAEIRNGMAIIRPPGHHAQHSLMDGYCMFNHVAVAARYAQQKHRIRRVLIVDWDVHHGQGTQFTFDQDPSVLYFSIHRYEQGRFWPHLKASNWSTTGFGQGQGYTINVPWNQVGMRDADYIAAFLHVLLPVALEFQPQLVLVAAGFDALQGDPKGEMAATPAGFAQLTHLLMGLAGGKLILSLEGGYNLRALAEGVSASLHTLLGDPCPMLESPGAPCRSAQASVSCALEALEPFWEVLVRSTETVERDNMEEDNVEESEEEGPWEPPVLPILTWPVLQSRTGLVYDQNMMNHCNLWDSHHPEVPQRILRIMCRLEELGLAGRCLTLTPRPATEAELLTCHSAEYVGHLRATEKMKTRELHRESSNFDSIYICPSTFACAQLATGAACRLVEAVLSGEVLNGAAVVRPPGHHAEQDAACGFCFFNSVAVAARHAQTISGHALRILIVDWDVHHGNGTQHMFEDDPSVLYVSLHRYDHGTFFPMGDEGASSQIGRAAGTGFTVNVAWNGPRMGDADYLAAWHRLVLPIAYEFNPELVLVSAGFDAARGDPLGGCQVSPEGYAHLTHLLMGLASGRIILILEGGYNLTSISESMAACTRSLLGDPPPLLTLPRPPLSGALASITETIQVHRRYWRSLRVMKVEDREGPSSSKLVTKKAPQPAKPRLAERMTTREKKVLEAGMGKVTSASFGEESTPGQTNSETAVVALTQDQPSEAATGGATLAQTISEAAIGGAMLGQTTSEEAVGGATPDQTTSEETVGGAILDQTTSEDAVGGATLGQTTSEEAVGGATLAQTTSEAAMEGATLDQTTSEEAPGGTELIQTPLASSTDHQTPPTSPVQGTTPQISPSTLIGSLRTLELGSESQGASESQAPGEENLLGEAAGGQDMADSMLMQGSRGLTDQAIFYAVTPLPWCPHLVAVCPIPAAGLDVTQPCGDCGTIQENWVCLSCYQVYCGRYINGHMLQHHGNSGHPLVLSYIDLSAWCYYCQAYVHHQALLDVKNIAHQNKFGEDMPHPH

T1 sequence (Q92769 whole entry): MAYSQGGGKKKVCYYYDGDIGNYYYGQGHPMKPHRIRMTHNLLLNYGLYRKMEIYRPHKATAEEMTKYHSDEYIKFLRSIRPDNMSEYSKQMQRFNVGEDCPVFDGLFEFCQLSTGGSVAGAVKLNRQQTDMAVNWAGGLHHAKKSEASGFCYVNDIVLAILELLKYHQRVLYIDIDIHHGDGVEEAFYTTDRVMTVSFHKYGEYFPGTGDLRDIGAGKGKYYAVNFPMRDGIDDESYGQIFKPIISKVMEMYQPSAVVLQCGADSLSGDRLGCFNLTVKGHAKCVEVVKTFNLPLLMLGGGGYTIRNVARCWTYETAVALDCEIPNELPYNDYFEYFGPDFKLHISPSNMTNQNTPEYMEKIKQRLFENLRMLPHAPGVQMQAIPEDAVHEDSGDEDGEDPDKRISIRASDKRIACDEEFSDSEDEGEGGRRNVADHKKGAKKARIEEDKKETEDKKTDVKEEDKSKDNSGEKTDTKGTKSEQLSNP

CC(=O)NCC(=O)NCC(=O)N[C@@H](CCCCCC(=O)NO)C(=O)N[C@@H](C)C(=O)N[C@@H](CCCNC(=N)N)C(=O)N[C@@H](C)C(=O)N[C@@H](CCCCN)C(=O)N[C@@H](C)C(=O)N[C@@H](CCCCN)C(=O)N[C@H](C(=O)N[C@@H](CCCNC(=N)N)C(=O)N[C@@H](CO)C(=O)N[C@@H](CO)C(=O)N[C@@H](CCCNC(=N)N)C(=O)N[C@@H](C)C(=O)NCC(=O)N[C@@H](Cc1c[nH]c2ccccc12)C(N)=O)[C@@H](C)O [9a] (Ac-GG[Asu](NHOH)ARAKAKTRSSRAGW-NH2)
selectivity against HDACs 1‒3 versus HDAC8 (HDACs 1‒3 and 8): over 100 fold
EC50 (HDAC2): 1.95 nM
residual enzymatic activity relative to control wells (HDAC6; log[inhibitor(M)] -4.30103): 0.99 and 1.47
residual enzymatic activity relative to control wells (HDAC6; log[inhibitor(M)] -5): 0.54 and 1.15
residual enzymatic activity relative to control wells (HDAC6; log[inhibitor(M)] -5.69897): 2.15 and 1.92
residual enzymatic activity relative to control wells (HDAC6; log[inhibitor(M)] -6.39794): 7.05 and 5.56
residual enzymatic activity relative to control wells (HDAC6; log[inhibitor(M)] -7.09691): 24.41 and 17.7
residual enzymatic activity relative to control wells (HDAC6; log[inhibitor(M)] -7.79588): 54.41 and 42.53
residual enzymatic activity relative to control wells (HDAC6; log[inhibitor(M)] -8.49485): 80.22 and 64.16
residual enzymatic activity relative to control wells (HDAC6; log[inhibitor(M)] -9.19382): 93.97 and 80.87
residual enzymatic activity relative to control wells (HDAC6; log[inhibitor(M)] -9.89279): 97.61 and 89.51
residual enzymatic activity relative to control wells (HDAC6; log[inhibitor(M)] -10.585): 98,6* and 92,44*

CC(=O)N[C@@H](C)C(=O)N1CCC[C@H]1C(=O)N[C@@H](C)C(=O)N1CCC[C@H]1C(=O)N[C@@H](CCCCN)C(=O)N[C@@H](CCCCCC(=O)NO)C(=O)NCC(=O)N[C@@H](CO)C(=O)N[C@@H](CCCCN)C(=O)N[C@@H](CCCCN)C(=O)N[C@@H](C)C(=O)N[C@H](C(=O)N[C@H](C(=O)N[C@@H](CCCCN)C(=O)N[C@@H](C)C(=O)N[C@@H](CCC(N)=O)C(=O)N[C@@H](Cc1c[nH]c2ccccc12)C(N)=O)[C@@H](C)O)C(C)C [10a] (Ac-APAPK[Asu](NHOH)GSKKAVTKAQW-NH2)
EC50 (HDAC2): > 25.1 nM
residual enzymatic activity relative to control wells (HDAC6; log[inhibitor(M)] -4.30103): 1.4 and 0.93
residual enzymatic activity relative to control wells (HDAC6; log[inhibitor(M)] -5): 3.09 and 2.23
residual enzymatic activity relative to control wells (HDAC6; log[inhibitor(M)] -5.69897): 13.76 and 8.98
residual enzymatic activity relative to control wells (HDAC6; log[inhibitor(M)] -6.39794): 36.89 and 30.05
residual enzymatic activity relative to control wells (HDAC6; log[inhibitor(M)] -7.09691): 68.83 and 58.89
residual enzymatic activity relative to control wells (HDAC6; log[inhibitor(M)] -7.79588): 90.1 and 83.16
residual enzymatic activity relative to control wells (HDAC6; log[inhibitor(M)] -8.49485): 98.1 and 88.82
residual enzymatic activity relative to control wells (HDAC6; log[inhibitor(M)] -9.19382): 100.25 and 95.78
residual enzymatic activity relative to control wells (HDAC6; log[inhibitor(M)] -9.89279): 102.47 and 98.2
residual enzymatic activity relative to control wells (HDAC6; log[inhibitor(M)] -10.585): 99,94* and 98,05*

CC(=O)N1CCC[C@H]1C(=O)N[C@@H](CCCNC(=N)N)C(=O)N[C@@H](CCCCN)C(=O)N[C@@H](CCC(N)=O)C(=O)N[C@@H](CC(C)C)C(=O)N[C@@H](C)C(=O)N[C@H](C(=O)N[C@@H](CCCCN)C(=O)N[C@@H](C)C(=O)N[C@@H](C)C(=O)N[C@@H](CCCNC(=N)N)C(=O)N[C@@H](CCCCCC(=O)NO)C(=O)N[C@@H](CO)C(=O)N[C@@H](C)C(=O)N1CCC[C@H]1C(=O)N[C@@H](C)C(=O)N[C@@H](Cc1c[nH]c2ccccc12)C(N)=O)[C@@H](C)O [14a] (Ac-PRKQLATKAAR[Asu](NHOH)SAPAW-NH2)
inhibitory potency in words (HDACs 1‒3 and 8; across the HDACs named in the sentence): inhibited all four isozymes with similar potency
EC50 (HDAC2): 2.82 nM
residual enzymatic activity relative to control wells (HDAC6; log[inhibitor(M)] -4.30103): 0.91 and 1.08
residual enzymatic activity relative to control wells (HDAC6; log[inhibitor(M)] -5): 1.61 and 1.34
residual enzymatic activity relative to control wells (HDAC6; log[inhibitor(M)] -5.69897): 2.69 and 2.19
residual enzymatic activity relative to control wells (HDAC6; log[inhibitor(M)] -6.39794): 9.28 and 7.48
residual enzymatic activity relative to control wells (HDAC6; log[inhibitor(M)] -7.09691): 29.33 and 24.37
residual enzymatic activity relative to control wells (HDAC6; log[inhibitor(M)] -7.79588): 61.34 and 57.66
residual enzymatic activity relative to control wells (HDAC6; log[inhibitor(M)] -8.49485): 91.27 and 83.89
residual enzymatic activity relative to control wells (HDAC6; log[inhibitor(M)] -9.19382): 101.6 and 95.57
residual enzymatic activity relative to control wells (HDAC6; log[inhibitor(M)] -9.89279): 101.56 and 98.95
residual enzymatic activity relative to control wells (HDAC6; log[inhibitor(M)] -10.585): 102,36* and 98,9*

CC(=O)N[C@@H](CC(C)C)C(=O)NCC(=O)N[C@@H](CCCCN)C(=O)NCC(=O)NCC(=O)N[C@@H](C)C(=O)N[C@@H](CCCCCC(=O)NO)C(=O)N[C@@H](CCCNC(=N)N)C(=O)N[C@@H](Cc1c[nH]cn1)C(=O)N[C@@H](CCCNC(=N)N)C(=O)N[C@@H](CCCCN)C(=O)N[C@H](C(=O)N[C@@H](CC(C)C)C(=O)N[C@@H](CCCNC(=N)N)C(=O)N[C@@H](CC(=O)O)C(=O)N[C@@H](CC(N)=O)C(=O)N[C@@H](Cc1c[nH]c2ccccc12)C(N)=O)C(C)C [16a] (Ac-LGKGGA[Asu](NHOH)RHRKVLRDNW-NH2)
selectivity against HDACs 1‒3 versus HDAC8 (HDACs 1‒3 and 8): over 100 fold
EC50 (HDAC2): 1.45 nM
residual enzymatic activity relative to control wells (HDAC6; log[inhibitor(M)] -4.30103): 4.09 and 0.65
residual enzymatic activity relative to control wells (HDAC6; log[inhibitor(M)] -5): 6.22 and 1.17
residual enzymatic activity relative to control wells (HDAC6; log[inhibitor(M)] -5.69897): 11.26 and 3.12
residual enzymatic activity relative to control wells (HDAC6; log[inhibitor(M)] -6.39794): 21.64 and 10.97
residual enzymatic activity relative to control wells (HDAC6; log[inhibitor(M)] -7.09691): 46.18 and 32.55
residual enzymatic activity relative to control wells (HDAC6; log[inhibitor(M)] -7.79588): 74.92 and 62.21
residual enzymatic activity relative to control wells (HDAC6; log[inhibitor(M)] -8.49485): 91.41 and 82.42
residual enzymatic activity relative to control wells (HDAC6; log[inhibitor(M)] -9.19382): 100.82 and 93.56
residual enzymatic activity relative to control wells (HDAC6; log[inhibitor(M)] -9.89279): 98.48 and 94.75
residual enzymatic activity relative to control wells (HDAC6; log[inhibitor(M)] -10.585): 101,7* and 98,09*
